Results taken from ChEMBL document CHEMBL1201862, “PubChem BioAssay data set” (2004).
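Cultured in 96-well plates, cells were exposed to test compound for 48 hours across five concentrations. The concentration for 50% growth inhibition is given as GI50.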 The source made the active and inactive calls. Rule as the data show it: active = GI50 up to about 1.1 µM and inactive = higher.

How the values were obtained:
Assay in all cases: DTP human tumour cell line panel, 48 h
786-0 = tested on: 786-0
A498 = tested on: A498
COLO 205 = tested on: COLO 205
HOP-62 = tested on: HOP-62
LOX IMVI = tested on: LOX IMVI
MDA-N = tested on: MDA-N
MOLT-4 = tested on: MOLT-4
NCI-H226 = tested on: NCI-H226
NCI-H460 = tested on: NCI-H460
NCI-H522 = tested on: NCI-H522
OVCAR-3 = tested on: OVCAR-3
OVCAR-4 = tested on: OVCAR-4
SF-268 = tested on: SF-268
SK-MEL-5 = tested on: SK-MEL-5
SN12C = tested on: SN12C
SNB-75 = tested on: SNB-75
SNB-78 = tested on: SNB-78
U-251 = tested on: U-251
UACC-257 = tested on: UACC-257
UO-31 = tested on: UO-31

Measured: GI50

COc1cc2c(c(O)c1C)C(=O)C(Cl)=CC2=O
inactive: 786-0 11.6 µM | A498 19 µM | COLO 205 2.16 µM | HOP-62 43.2 µM | LOX IMVI 9.53 µM | MDA-N 4.07 µM | MOLT-4 1.88 µM | NCI-H226 15.1 µM | NCI-H460 24.9 µM | NCI-H522 2.36 µM | OVCAR-3 9.91 µM | OVCAR-4 11.8 µM | SF-268 17.8 µM | SK-MEL-5 8.69 µM | SN12C 12.4 µM | SNB-75 16.4 µM | SNB-78 12.8 µM | U-251 21.4 µM | UACC-257 9.95 µM | UO-31 10.4 µM

C[S+]([O-])c1cc(=O)c2ccccc2s1 (stereo not given)
inactive: 786-0 2.82 µM | A498 11.5 µM | COLO 205 2.32 µM | HOP-62 27 µM | LOX IMVI 3.78 µM | MDA-N 3.05 µM | MOLT-4 2.05 µM | NCI-H226 16.9 µM | NCI-H460 14.9 µM | NCI-H522 1.13 µM | OVCAR-3 2.42 µM | OVCAR-4 3.03 µM | SF-268 10.2 µM | SK-MEL-5 10.6 µM | SN12C 5.79 µM | SNB-75 11.4 µM | SNB-78 7.52 µM | U-251 12.8 µM | UACC-257 3.4 µM | UO-31 11.9 µM
